Assay results as given in US8710017B2, “Human and mouse targeting peptides identified by phage display” (priority 2000, dated 2014).
Bridge positions count the residues as written; N and C are the ends. Ends that are not written are not given here.

Experiments:
endothelial cells = test: Endothelial cell migration (chemotaxis) assay with penetratin peptide chimeras; format: cell-based, human; conditions: VEGF-A 20 ng/ml, 5 h, FIG. 16
Protocol: FIG. 16. Effect of penetratin peptide chimeras on endothelial cell migration. Cell migration assay were performed in a 48-well microchemotaxis chamber. Five random high-power fields (magnitude 40×) were counted in each well.
Cell migration assays were performed as follows: 48-well microchemotaxis chambers were used. Polyvinylpyrrolidone-free polycarbonate filters (Nucleopore, Cambridge, Mass.) with 8-μm pores were coated with 1% gelatin for 10 min at room temperature and equilibrated in M199 medium supplemented with 2% FCS. Peptides were placed in the lower compartment of a Boyden chamber in M199 supplemented with 2% FCS, 20 ng/ml VEGF-A (R&D System), and 1 U/ml heparin. Overnight-starved subconfluent cultures were quickly trypsinized, and resuspended in M199 containing 2% FCS at a final concentration of 2×10^6 cells/ml. After the filter was placed between lower and upper chambers, 50 μl of the cell suspension was seeded in the upper compartment. Cells were allowed to migrate for 5 h at 37° C. in a humidified atmosphere with 5% CO2. The filter was then removed, and cells on the upper side were scraped with a rubber policeman. […] Five random high-power fields (magnitude 40×) were counted in each well.
Cell migration was assayed in a 48-well microchemotaxis chamber. […] Five random high-power fields (magnitude 40×) were counted in each well.

[1] = target: T1, β5 integrin cytoplasmic domain (Homo sapiens, UniProt P18084); test: Phage binding to immobilized GST-β5cyto; conditions: for β5/GST Ratio: colonies from β5-GST wells divided by GST
T1 construct: the screenings involving the β5 cytoplasmic domain fusion protein
T1 sequence (P18084 743-799 limits assumed): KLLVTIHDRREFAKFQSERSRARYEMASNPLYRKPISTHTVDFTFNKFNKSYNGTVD
Protocol: FIG. 10. Binding of β5 cytoplasmic domain-selected phage to immobilized proteins. GST fusion proteins or GST alone were coated on microtiter wells at 10 μg/ml and used to bind phage expressing endostatin binding peptides. […] The data represent the mean colony counts from triplicate wells, with standard error less than 10% of the mean.
β3 and β5 cytoplasmic domain-binding peptides were isolated by screening multiple phage libraries with recombinant GST fusion proteins that contained either GST-β3cyto or GST-β5cyto coated onto microtiter wells. Immobilized GST was used as a negative control for enrichment during the panning of each cytoplasmic domain. Phage were sequenced from randomly selected clones after three rounds of panning as disclosed elsewhere (Koivunen et al., 1995; Pasqualini et al., 1995). Distinct sequences were isolated that interacted specifically with the β3 or with the β5 cytoplasmic domains (Table 9). Randomly selected clones from panning rounds II and III were sequenced. Amino acid sequences of the phagemid encoded peptides were deduced from nucleotide sequences. The ratios were calculated by dividing the number of colonies recovered from β3-GST-coated wells and those recovered from GST or BSA.
A similar strategy was used to determine the specificity of the phage isolated in the screenings involving the β5 cytoplasmic domain fusion protein.
To determine whether the binding of the selected motifs was specific for each cytoplasmic domain, binding assays were performed comparing the interaction of individual phage motifs with β1, β3, or β5 cytoplasmic domain fusion proteins. […] Both the β3- and β5-selected phage selectively interacted with the proteins on which they were originally selected, with average binding selectivities observed of β3/β1=3.9, β3/β5=3.7, β5/β1=4.8, and β5/β3=6.9 (not shown). The average selectivity for integrin cytoplasmic domains versus BSA was about one to two orders of magnitude (not shown). None of the phage tested seemed to bind strongly to the β1 cytoplasmic domain (not shown).

[2] = system: chicken chorioallantoic membrane (CAM); test: CAM assay for angiogenesis; format: in vivo; conditions: control peptide, 1 mM, not shown
Protocol: In vivo angiogenesis was evaluated by a CAM assay (Ribatti et al., 1994). Fertilized eggs from White Leghorn chickens were maintained in constant humidity at 37° C. On the third day of incubation, a square window was opened in the eggshell and 2-3 ml of albumen was removed to detach the developing CAM from the shell. The window was sealed with a glass plate of the same size and the eggs were returned to the incubator. At day 8, 1 mm^3 sterilized gelatin sponges (Gelfoam, Upjohn Co, Kalamazoo, Milan) were adsorbed with VEGF-A (20 ng, R&D System) and either […] (SEQ ID NO:123) or control […] (SEQ ID NO:124) peptide (1 mM) in 3 μl PBS and implanted on the top of the growing CAMs under sterile conditions. CAMs were examined daily until day 12 and photographed in ovo with a Leica stereomicroscope. Capillaries emerging from the sponge were counted. The assay was repeated twice.

HUVECs [3] = test: HUVEC chemotaxis assay (Boyden chamber, VEGF-A); format: cell-based, human; conditions: 1 mM, VEGF-A 10 ng/ml, 5 h, FIG. 24
Protocol: FIG. 24. […] (SEQ ID NO:123) inhibits HUVEC migration. HUVECs were stimulated with VEGF-A (10 ng/ml). The assay was performed in a Boyden microchemotaxis chamber, and cells were allowed to migrate through an 8-μm pore filter for 5 h at 37° C. […] (SEQ ID NO:124) (control) and […] (SEQ ID NO:123) peptides were tested at 1 mM concentration. Migrated cells were stained and five high-power fields (magnitude 100×) for each microwell were counted. Error bars are the standard error of the means of triplicate microwells.
A cell migration assay was performed in a 48-well microchemotaxis chamber (NeuroProbe, Gaithersburg, Md.) according to Bussolini et al. (1995). Polyvinylpyrrolidone-free polycarbonate filters (Nucleopore, Cambridge, Mass.) with 8-μm pores were coated with 1% gelatin for 10 min at room temperature and equilibrated in M199 medium supplemented with 2% FCS. […] (SEQ ID NO:123) or control […] (SEQ ID NO:124) peptide (1 mM) was placed in the lower compartment of a Boyden chamber in M199 medium supplemented with 2% FCS and 10 ng/ml VEGF-A (R&D System). Subconfluent cultures that had been starved overnight were harvested in PBS containing 2.5 mM EDTA, washed once in PBS, and resuspended in M199 medium containing 2% FCS at a final concentration of 2×10^6 cells/ml. After the filter was placed between the lower and upper chambers, 50 μl of the cell suspension was seeded in the upper compartment, and cells were allowed to migrate for 5 h at 37° C. in a humidified atmosphere with 5% CO2. The filter was then removed, and cells on the upper side were scraped with a rubber policeman. Migrated cells were fixed in methanol and stained with Giemsa solution (Diff-Quick, Baxter Diagnostics, Rome, Italy). Five random high-power fields (magnitude 100×) were counted in each well. Each assay was run in triplicate.

HUVECs [4] = test: HUVEC cell growth assay (crystal violet, VEGF-A); format: cell-based, human; conditions: 1 mM, VEGF-A 10 ng/ml, FIG. 25
Protocol: FIG. 25. […] (SEQ ID NO:123) inhibits HUVEC proliferation. Cells were stimulated with VEGF-A (10 ng/ml), and growth was evaluated at the indicated times by a colorimetric assay based on crystal violet staining. Error bars are the standard error of the means of triplicate wells. Each experiment was repeated at least twice with similar results.
HUVECs were seeded in 48-well plates (10^4 cells/well) and allowed to attach for 24 h in complete M199 medium. The cells were then starved in M199 medium containing 2% FCS for 24 h. […] (SEQ ID NO:123) or control […] (SEQ ID NO:124) peptide (1 mM) was added to the wells in medium containing 2% FCS and 10 ng/ml VEGF-A (R&D System, Abingdom, UK). After incubation for the indicated times, cells were fixed in 2.5% glutaraldehyde, stained with 0.1% crystal violet in 20% methanol, and solubilized in 10% acetic acid. All treatments were done in triplicate. Cell growth was evaluated by measuring the O.D. at 590 nm in a microplate reader (Biorad, Hercules, Calif.). A calibration curve was established and a linear correlation between O.D. and cell counts was observed between 10^3 and 10^5 cells.

APA (SK-RC-49/APA cells) [5] = target: T2, APA (SK-RC-49/APA cells) (Homo sapiens, UniProt Q07075); test: Phage binding specificity assay on SK-RC-49/APA cells; format: cell-based
T2 construct: The renal carcinoma cell line SK-RC-49 was transfected with an expression vector encoding full-length APA cDNA; expressed in transfected cells; host or cells: SK-RC-49 renal carcinoma cells, stably transfected (G418)
T2 sequence (Q07075 whole entry): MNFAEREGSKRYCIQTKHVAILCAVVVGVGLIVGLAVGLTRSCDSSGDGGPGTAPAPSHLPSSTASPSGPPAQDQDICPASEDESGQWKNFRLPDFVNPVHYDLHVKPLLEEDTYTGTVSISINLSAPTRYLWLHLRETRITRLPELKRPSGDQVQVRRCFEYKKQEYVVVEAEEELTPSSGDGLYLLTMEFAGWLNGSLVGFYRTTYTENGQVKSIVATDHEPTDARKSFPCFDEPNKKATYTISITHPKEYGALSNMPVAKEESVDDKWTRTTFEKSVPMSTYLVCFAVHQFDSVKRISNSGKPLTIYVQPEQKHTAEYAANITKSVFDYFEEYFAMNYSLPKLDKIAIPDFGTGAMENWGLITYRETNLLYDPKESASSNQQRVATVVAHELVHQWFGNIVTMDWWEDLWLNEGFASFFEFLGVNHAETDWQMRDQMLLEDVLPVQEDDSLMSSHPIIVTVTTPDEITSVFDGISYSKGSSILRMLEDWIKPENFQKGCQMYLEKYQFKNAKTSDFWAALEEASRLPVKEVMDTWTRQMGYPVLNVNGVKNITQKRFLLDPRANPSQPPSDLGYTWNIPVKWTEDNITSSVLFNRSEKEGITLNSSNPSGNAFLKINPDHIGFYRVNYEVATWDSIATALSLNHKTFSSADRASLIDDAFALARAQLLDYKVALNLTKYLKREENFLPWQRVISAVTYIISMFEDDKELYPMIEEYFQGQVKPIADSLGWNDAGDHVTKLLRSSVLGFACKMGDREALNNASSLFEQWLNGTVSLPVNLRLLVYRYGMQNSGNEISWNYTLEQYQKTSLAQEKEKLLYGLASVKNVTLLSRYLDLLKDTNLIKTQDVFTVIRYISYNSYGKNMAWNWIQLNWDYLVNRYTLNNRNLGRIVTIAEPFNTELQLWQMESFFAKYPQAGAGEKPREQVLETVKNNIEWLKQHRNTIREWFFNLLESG
Protocol: The cell binding assay was performed with an input of 10^9 TU as described for the cell panning. The specificity was confirmed by adding […] (SEQ ID NO:123) peptide to the binding medium in increasing concentrations. For phage binding on immunocaptured APA, wells were blocked for 1 h at room temperature with PBS/3% BSA and incubated with 10^9 TU for 1 h at room temperature in 50 μl PBS/3% BSA. After eight washes in PBS/1% BSA/0.01% Tween-20 and two washes in PBS, phage were rescued by adding 200 μl of exponentially growing K91Kan E. coli. Each experiment was repeated at least three times.

HUVECs [6] = test: Three-dimensional Matrigel culture of HUVECs (capillary-like network); format: cell-based, human; conditions: 1 mM, 24 h, not shown
Protocol: Matrigel (Collaborative Research, Bedford, Mass.) was added at 100 μl per well to 48-well tissue culture plates and allowed to solidify for 10 min at 37° C. HUVECs were starved for 24 h in M199 medium supplemented with 2% FCS before being harvested in PBS containing 2.5 mM EDTA. 10^4 cells were gently added to each of the triplicate wells and allowed to adhere to the gel coating for 30 min at 37° C. Then, medium was replaced with indicated concentrations of […] (SEQ ID NO:123) or […] (SEQ ID NO:124) peptides in complete medium. The plates were photographed after 24 h with an inverted microscope (Canon). The assay was repeated three times.

[7] = system: MDA-MB-435-derived tumor xenografts; test: In vivo tumor homing of APA-binding phage; parameters: species or system mouse; conditions: 10^9 TU iv, 5 min circulation, FIG. 22
Protocol: MDA-MB-435-derived tumor xenografts were established in female nude mice 2 months old (Jackson Labs, Bar Harbor, Me.). Mice were anesthetized with Avertin and injected intravenously through the tail vein with 10^9 TU of the phage in a 200 μl volume of DMEM. The phage were allowed to circulate for 5 min, and the animals were perfused through the heart with 5 ml of DMEM. The tumor and brain were dissected from each mouse, weighed, and equal amounts of tissue were homogenized. The tissue homogenates were washed three times with ice-cold DMEM containing a proteinase inhibitor cocktail and 0.1% BSA. Bound phage were rescued and counted as described for cell panning. Fd-tet phage was injected at the same input as a control. The experiment was repeated twice. In parallel, part of the same tissue samples were fixed in Bouin solution, and imbedded in paraffin for preparation of tissue sections. An antibody to M-13 phage (Amersham-Pharmacia) was used for the staining.

APA (SK-RC-49/APA cells) [8] = target: T2, APA (SK-RC-49/APA cells); test: Cell panning of CX3CX3CX3C phage library on SK-RC-49/APA cells (insert frequency); format: cell-based; conditions: share of 18 randomly selected phage inserts, round 2
Protocol: A CX3CX3CX3C(C, cysteine; X, any amino acid) library was prepared (Rajotte et al., 1998). […] Cells were detached by incubation with 2.5 mM EDTA in PBS, washed once in binding medium (DMEM high glucose supplemented with 20 mM HEPES and 2% FCS), and resuspended in the same medium at a concentration of 2×10^6 cells/ml. 10^10 TU of phage were added to 500 μl of the cell suspension, and the mixture was incubated overnight (first round) or for 2 h (successive rounds) at 4° C. with gentle rotation. Cells were washed five times in binding medium at room temperature and resuspended in 100 μl of the same medium. Phage were rescued by adding 1 ml of exponentially growing K91Kan Escherichia coli bacteria and incubating the mixture for 1 h at room temperature. Bacteria were diluted in 10 ml of LB medium supplemented with 0.2 μg/ml tetracycline and incubated for another 20 min at room temperature. Serial dilutions were plated on LB plates containing 40 μg/ml tetracycline, and plates were incubated at 37° C. overnight before colonies were counted.
The CX3CX3CX3C phage library (10^10 transducing units [TU]) was preadsorbed on parental SK-RC-49 cells to decrease nonspecific binding. […] SK-RC-49/APA-bound phage were amplified and used for two consecutive rounds of selection.

Sequence: GLDTYRGSP [TYR-11 tested as penetratin chimera]
- effect on endothelial cell migration (endothelial cells): increase cell migration

Sequence: CKLWQEDGY
- β5/GST Ratio [1]: 1.8

Sequence: DWFSYYEL
- β5/BSA Ratio ([1]; colonies from β5-GST wells divided by BSA): 153
- β5/GST Ratio [1]: 1.7

Sequence: GACVRLSACGA (disulfide 3-9 (inferred)) [unrelated cyclic control peptide, reference compound]
- effect on the number of growing vessels [2]: no effect
- inhibition of chemotaxis of HUVECs (HUVECs [3]): no significant effect
- inhibition of HUVEC proliferation (HUVECs [4]): no significant effect
- competition with CPKVCPRECESNC phage for binding to SK-RC-49/APA cells (APA (SK-RC-49/APA cells) [5]; soluble peptide in binding medium, not shown): no competitive activity
- HUVEC morphogenesis / capillary-like network (HUVECs [6]): did not affect HUVEC morphogenesis

Sequence: CLGQCASICVNDC
- enrichment in tumor xenografts compared to brain tissue [7]: Neither CYNLCIRECESICGADGACWTWCADGCSRSC (SEQ ID NO:125) nor CLGQCASICVNDC (SEQ ID NO:126) phage showed any tumor-homing preference
- Round 2 (%) (APA (SK-RC-49/APA cells) [8]): 5%
- displacement of phage binding by CPRECESIC peptide (APA (SK-RC-49/APA cells) [5]; data not shown): not affected

Sequence: SDNRYIGSW [Y-18 tested as penetratin chimera]
- effect on endothelial cell migration (endothelial cells): increase cell migration
